Reference: patent publication US20240254547A1, “HIGHLY ACCURATE […]” (KAO CORPORATION, priority 2018, published 2024)

Assays:
gpt gene = assay: gpt-assay, gene mutation frequency (OECD TG488); format: in vivo, mouse (C57BL/6JJmsSlc-Tg (gpt delta)); details: bone marrow
Method: (§1) Male TG mice which were 7 to 9 weeks old at initiation of administration were used. ENU (produced by Toronto Research Chemicals, Inc.) was dissolved in saline to a concentration of 15.0 mg/mL. By using a plastic syringe and a 25 G injection needle, […] was intraperitoneally administered to the mice once per day (ENU 150 mg/kg/day) for 5 days (ENU group). Saline was administered to a control group. Seven days after the final administration, the animals were each euthanized to resect the femur, and genomic DNA was extracted from the bone marrow by using a REcoverEase DNA Isolation Kit (produced by Agilent Technologies) in accordance with the recommended protocol. The double-stranded DNA concentration of the resulting DNA was measured by using a Qubit3.0 Fluorometer (produced by Thermo Fisher Scientific) with a Qubit™ dsDNA BR Assay Kit attached thereto.
DNA was extracted from the bone marrow of each of the mice obtained in 1) by using phenol/chloroform. For the extract DNA, gene mutation frequency was calculated by using the gpt gene introduced into each TG mouse in accordance with OECD Guidelines for the Testing of Chemicals 488 (OECD TG488) (gpt-assay). […] From the number of colonies formed on the selective medium (mutant colonies) and the number of colonies formed on the medium for titer determination (total colonies), mutation frequency (*10^−6) was calculated. […]

[1] = test system: genomic DNA from the bone marrow of TG mouse; assay: Mutation analysis of mouse bone marrow genomic DNA by sequencing with information on complementary strands; format: in vivo, mouse (C57BL/6JJmsSlc-Tg (gpt delta)); details: ENU 150 mg/kg/day intraperitoneally for 5 days, n=2
Method: as §1, with “thereto. […]” for “thereto.”
Each of the libraries prepared in 3) was subjected to sequencing by using a HiSeq 2500 (produced by Illumina, Inc.), where the read length was set to 2*100 bp. […]
Edit of raw read sequences acquired through sequencing, extraction of information on complementary strands, and mutation analysis were performed by using the procedure of 5) in Example 2 in accordance with the analysis flow illustrated above in Schematic Diagrams 3 and 4. […]

## CCN(N=O)C(N)=O [ENU, ethylnitrosourea]
Gpt gene; ENU 150 mg/kg/day intraperitoneally for 5 days, n=4
  Mean Mutant Frequency (gpt-assay): 126.33 *10^−6
Gpt gene; ENU 150 mg/kg/day
  Gene mutation frequency (gpt-assay) versus control group: Significant increase
[1]
  Frequencies of A:T>T:A, A:T>G:C, and G:C>A:T versus control group: significantly higher
